Six compounds from patent US7910612B2, “4-oxy-N-[1,3,4]-thiadiazol-2-yl-benzene sulfonamides, pharmaceutical compositions and methods for their therapeutic use” (Sanofi-Aventis, priority 2005, dated 2011) can be followed below.

This assay deals with T1, human PPARdelta (Homo sapiens, UniProt Q03181).
T1 construct: amino acids S139-Y441; expressed in transfected cells; host or cells: HEK (human embryo kidney) cells, stably transfected, pcDNA3 vector
T1 sequence (Q03181 139-441): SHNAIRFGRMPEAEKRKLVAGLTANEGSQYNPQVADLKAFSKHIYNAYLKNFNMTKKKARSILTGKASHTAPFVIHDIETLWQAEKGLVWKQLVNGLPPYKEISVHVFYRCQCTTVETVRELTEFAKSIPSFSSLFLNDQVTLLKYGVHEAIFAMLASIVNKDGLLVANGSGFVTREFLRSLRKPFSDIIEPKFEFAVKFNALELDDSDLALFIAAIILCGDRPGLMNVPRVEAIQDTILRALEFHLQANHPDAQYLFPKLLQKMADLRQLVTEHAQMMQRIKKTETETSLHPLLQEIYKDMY
Briefly: cellular PPARdelta assay (stably transfected HEK luciferase reporter cell line). Type of assay: cell-based. The procedure: The potency of substances which bind to human PPARdelta and activate it in an agonistic manner is analyzed using a stably transfected HEK cell line (HEK=human embryo kidney) which is referred to here as PPARdelta reporter cell line. In analogy to the assay described for PPARalpha, the PPARdelta reporter cell line also contains two genetic elements, a luciferase reporter element (pdeltaM-GAL4-Luc-Zeo) and a PPARdelta fusion protein (GR-GAL4-humanPPARdelta-LBD) which mediates expression of the luciferase reporter element depending on a PPARdelta ligand. The stably and constitutively expressed fusion protein GR-GAL4-humanPPARdelta-LBD binds in the cell nucleus of the PPARdelta reporter cell line via the GAL4 protein portion to the GAL4 DNA binding motifs 5′-upstream of the luciferase reporter element which is stably integrated in the genome of the cell line. There is only little expression of the luciferase reporter gene in the absence of a PPARdelta ligand if fatty acid-depleted fetal calf serum (cs-FCS) is used in the assay. PPARdelta ligands bind and activate the PPARdelta fusion protein and thereby stimulate expression of the luciferase reporter gene. The luciferase which is formed can be detected by means of chemiluminescence via an appropriate substrate.
The production of the stable PPARdelta reporter cell line is based on a stable HEK-cell clone which was stably transfected with a luciferase reporter element. This step was already described above in the section “construction of the PPARalpha reporter cell line”. In a second step, the PPARdelta fusion protein (GR-GAL4-humanPPARdelta-LBD was stably introduced into this cell clone. For this purpose, the cDNA coding for the N-terminal 76 amino acids of the glucocorticoid receptor (Accession #P04150) was linked to the cDNA section coding for amino acids 1-147 of the yeast transcription factor GAL4 (Accession #P04386). The cDNA of the ligand-binding domain of the human PPARdelta receptor (amino acids S139-Y441; Accession #L07592) was cloned in at the 3′-end of this GR-GAL4 construct. The fusion construct prepared in this way (GR-GAL4-humanPPARdelta-LBD) was recloned into the plasmid pcDNA3 (Invitrogen) in order to enable constitutive expression by the cytomegalovirus promoter. This plasmid was linearized with a restriction endonuclease and stably transfected into the previously described cell clone containing the luciferase reporter element. The resulting PPARdelta reporter cell line which contains a luciferase reporter element and constitutively expresses the PPARdelta fusion protein (GR-GAL4-human PPARdelta-LBD) was isolated by selection with zeocin (0.5 mg/ml) and G418 (0.5 mg/ml).
The activity of PPARdelta agonists is determined in a 3-day assay in exact analogy to the procedure already described for the PPARalpha reporter cell line except that the PPARdelta reporter cell line and a specific PPARdelta agonist was used as a standard to control test efficacy. […] Compounds of the invention of the formula I activate the PPARdelta receptor.
Turning to `Cc1nc(-c2ccc(C(F)(F)F)cc2)sc1COc1ccc(S(=O)(=O)Nc2nnc(C(C)C)s2)cc1` [Example 1, N-(5-Isopropyl-[1,3,4]thiadiazol-2-yl)-4-[4-methyl-2-(4-trifluoromethyl-phenyl)-thiazol-5-ylmethoxy]-benzenesulfonamide], the EC50 – broadly, the midpoint of the concentration-response curve – was found to be 370 nM.
The compound `CC(C)c1nnc(NS(=O)(=O)c2ccc(OCc3ccc(Oc4ccc(C(F)(F)F)cc4)cc3)cc2)s1` [Example 4, N-(5-Isopropyl-[1,3,4]thiadiazol-2-yl)-4-[4-(4-trifluoromethyl-phenoxy)-benzyloxy]-benzenesulfonamide] displayed an EC50 of 1130 nM.
`COc1ccc2c(COc3ccc(S(=O)(=O)Nc4nnc(C(C)C)s4)cc3)coc2c1` [Example 3, N-(5-Isopropyl-[1,3,4]thiadiazol-2-yl)-4-(6-methoxy-benzofuran-3-ylmethoxy)-benzenesulfonamide] registered an EC50 of 480 nM.
In turn, `COc1ccc(-c2nc(COc3ccc(S(=O)(=O)Nc4nnc(C(C)C)s4)cc3)no2)cc1` [Example 9, N-(5-Isopropyl-[1,3,4]thiadiazol-2-yl)-4-[5-(4-methoxy-phenyl)-[1,2,4]oxadiazol-3-ylmethoxy]-benzenesulfonamide] gave an EC50 of 260 nM.
Compound `CCc1oc(-c2cccc(C(F)(F)F)c2)nc1COc1ccc(S(=O)(=O)Nc2nnc(C(C)C)s2)cc1` [Example 14, 4-[5-Ethyl-2-(3-trifluoromethyl-phenyl)-oxazol-4-ylmethoxy]-N-(5-isopropyl-[1,3,4]thiadiazol-2-yl)-benzenesulfonamide] returned an EC50 of 670 nM.
The same measure for `COc1ccc(-c2nc(COc3ccc(S(=O)(=O)Nc4nnc(C(C)C)s4)cc3)co2)cc1` [Example 13, N-(5-Isopropyl-[1,3,4]thiadiazol-2-yl)-4-[2-(4-methoxy-phenyl)-oxazol-4-ylmethoxy]-benzenesulfonamide]: 650 nM.
